Source: patent US20080113073A1, “Hydroxydeoxybenzoins And The Use Thereof to Mask A Bitter Taste” (SYMRISE GMBH & CO. KG, priority 2005, published 2008)

What was measured:
taste of caffeine = conditions: in vivo; cited from earlier work
[1] = test system: bitter impression of a caffeine solution; assay: Bitter reduction of a caffeine solution, rated by a group of experts (0 not bitter to 10 extremely bitter); assay type: in vivo; conditions: for Bitter impression (1-10) with: 500 ppm caffeine plus 100 ppm substance, 95% confidence intervals given as error; for % reduction in the bitter impression: 500 ppm caffeine, 100 ppm substance, calculated from average ratings without/with substance
Protocol: In order to quantify the reduction in the bitter impression, the bitterness of a caffeine solution comprising 500 ppm and of a sample comprising 500 ppm of caffeine and a variable amount of the compound of the example was determined by a group of experts (rating 0 [not bitter] to 10 [extremely bitter]). The evaluation was carried out by calculating the reduction (in %) in the bitter impression from the average values of the assessments of the caffeine solution or the solutions containing caffeine and compound of the example. 2,4-Dihydroxybenzoic acid (2,4-DHB) was used as comparison in accordance with U.S. Pat. No. 5,643,941.

taste = conditions: studied within the context of various sweeteners; cited from earlier work
[2] = test system: sweetness impression of sugared low-fat yoghurt; assay: Sweetness enhancement in low-fat yoghurt with 5% sugar, coded tasting by 16 testers (scale 0 to 10); assay type: in vivo
Excerpt: 5% sugar was stirred into a commercially available natural yoghurt (without additives) having a fat content of 0.1% (sample 1). 200 ppm of compound 2 (Example 2), which had previously been dissolved in a minimal amount of ethanol, were additionally incorporated into a sample 2. Samples 1 and 2 were presented in coded form, in a different but predetermined order, to 16 testers for tasting. The testers had to note the sweetness impression on a scale of from 0 (not present) to 10 (extreme sweetness). In addition, the testers were to note other taste impressions.

[3] = test system: sweet impression of a sucrose solution; assay: Enhancement of the sweet impression of a sucrose solution, rated by a group of experts (0 not sweet to 10 extremely sweet); assay type: in vivo
Protocol: In order to quantify the enhancement of the sweet impression, the sweetness of a sucrose solution comprising 5% and of a sample comprising 5% sucrose and an amount of compound 2 was determined by a group of experts (rating 0 [not sweet] to 10 [extremely sweet]). The evaluation was carried out by calculating the […] (in %) in the sweet impression from the average values of the assessments of the sucrose solution or of the solution comprising sucrose and compound 2.

## O=C([O-])c1ccc(O)cc1O.[K+] [2,4-Dihydroxybenzoic acid potassium salt]
Taste of caffeine
  ability to suppress the taste of caffeine: not able to suppress the taste of caffeine

## COc1cc(CC(=O)c2c(O)cc(O)cc2O)ccc1O [Compound 1, 2-(4-Hydroxy-3-methoxyphenyl)-1-(2,4,6-trihydroxyphenyl)-ethanone]
[1]
  Bitter impression (1-10) with: 3.8 ± 0.9
  % reduction in the bitter impression: 23%

## COc1ccc(CC(=O)c2c(O)cc(O)cc2O)cc1O [2-(3-hydroxy-4-methoxyphenyl)-1-(2,4,6-trihydroxyphenyl)ethanone]
taste
  taste of the compound itself: tasteless

## COc1cc(CC(=O)c2ccc(O)cc2O)ccc1O [Compound 2, 1-(2,4-Dihydroxyphenyl)-2-(4-hydroxy-3-methoxyphenyl)-ethanone]
[2]; of 16 testers, 4 found sample 1 sweeter, 2 found both equally sweet
  number of testers who found the sample with compound sweeter: 10
[2]; sample 2 (200 ppm compound)
  further taste impression noted: sticky
[2]; sample 2 (200 ppm compound) versus sample 1
  preference of testers: preferred to sample 1 by the majority of testers
[2]; sample 2 (200 ppm compound) versus sample 1 in yoghurt with 5% sugar
  enhancement of the sweetness impression: 18%
[2]; sample 2: yoghurt 0.1% fat, 5% sugar, 200 ppm compound, sample 1 without compound rated 4.1
  average sweetness impression rating (0 to 10): 4.9
[1]
  Bitter impression (1-10) with: 4.3 ± 0.8
  % reduction in the bitter impression: 10%
[3]; 5% sucrose plus 100 ppm substance, standard deviations given as error
  Sweet impresssion (1-10) with: 5.9 ± 1.5
[3]; 5% sucrose, 100 ppm substance, calculated from average ratings
  % enhancement of the sweet impression: 18%

## O=C(O)c1ccc(O)cc1O [2,4-DHB, 2,4-Dihydroxybenzoic acid, reference compound]
[1]
  Bitter impression (1-10) with: 5.0 ± 1.0
  % reduction in the bitter impression: 3%
